Holding throughout (format): functional
Experiment [1] has as its system Salmonella enterica. The experiment is described as follows: In vitro antibacterial activity under anaerobic conditions against Salmonella choleraesuis strain 58B242.
The test system of experiment [2] is Streptococcus pyogenes. The experiment is described as follows: In vitro antibacterial activity under anaerobic conditions against […] pyogenes strain 2C203.
Experiment [3] concerns Escherichia coli. The experiment is described as follows: In vitro antibacterial activity under anaerobic conditions against Escherichia coli strain 51A266.
The test system of experiment [4] is Pasteurella multocida. Put plainly: In vitro antibacterial activity under anaerobic conditions against Pasteurella multocida strain 59A004.
In experiment [5] the test system is Brachyspira hyodysenteriae. The experiment is described as follows: In vitro antibacterial activity under anaerobic conditions against Treponema hyodysenteriae strain 94A002.

The text below walks through data of ChEMBL document CHEMBL1122473, “Synthesis and antibacterial activity of some 3-[(alkylthio)methyl]quinoxaline 1-oxide derivatives” (1983).

Converted amounts (≈) assume the structure as drawn.

Take `CNC(=O)c1c(CS(=O)(=O)CCO)nc2ccccc2[n+]1[O-]`: the MIC in experiment [1] turned out to be 25 µg/mL (≈ 76.8 µM); in experiment [2], 6.25 µg/mL (≈ 19.2 µM); in experiment [3], 6.25 µg/mL (≈ 19.2 µM); in experiment [4] it was 3.12 µg/mL (≈ 9.59 µM); in experiment [5], 12.5 µg/mL (≈ 38.4 µM).
For `CC(=O)c1c(CS(C)(=O)=O)nc2ccccc2[n+]1[O-]`, the MIC amounted to 12.5 µg/mL (≈ 44.6 µM) in experiment [1]; 1.56 µg/mL (≈ 5.57 µM) in experiment [2]; 12.5 µg/mL (≈ 44.6 µM) in experiment [3]; 0.78 µg/mL (≈ 2.78 µM) in experiment [4]; 0.19 µg/mL (≈ 0.678 µM) in experiment [5].
On to `CNC(=O)c1c(CS(C)(=O)=O)nc2ccccc2[n+]1[O-]`, for which the MIC worked out at 6.25 µg/mL (≈ 21.2 µM) in experiment [1]; 6.25 µg/mL (≈ 21.2 µM) in experiment [2]; 3.12 µg/mL (≈ 10.6 µM) in experiment [3]; 0.78 µg/mL (≈ 2.64 µM) in experiment [4]; 3.12 µg/mL (≈ 10.6 µM) in experiment [5].
With `CS(=O)(=O)Cc1nc2ccccc2[n+]([O-])c1S(C)(=O)=O`, the MIC in experiment [1] is 25 µg/mL (≈ 79 µM); in experiment [2], 6.25 µg/mL (≈ 19.8 µM); in experiment [3] it was 25 µg/mL (≈ 79 µM); in experiment [4], 3.12 µg/mL (≈ 9.86 µM); in experiment [5], over 25 µg/mL.
Turning to `CC(=O)c1c(CS(=O)(=O)CCO)nc2ccccc2[n+]1[O-]`, the MIC worked out at 50 µg/mL (≈ 161 µM) in experiment [1]; 6.25 µg/mL (≈ 20.1 µM) in experiment [2]; 25 µg/mL (≈ 80.6 µM) in experiment [3]; 1.56 µg/mL (≈ 5.03 µM) in experiment [4]; 3.12 µg/mL (≈ 10.1 µM) in experiment [5].
Taken in the same sequence, the figures for `COC(=O)c1c(CS(C)(=O)=O)nc2ccccc2[n+]1[O-]` were 6.25 µg/mL (≈ 21.1 µM), 3.12 µg/mL (≈ 10.5 µM), 3.12 µg/mL (≈ 10.5 µM), 0.78 µg/mL (≈ 2.63 µM) and 1.56 µg/mL (≈ 5.26 µM).
For the molecule `CS(=O)(=O)Cc1nc2ccccc2[n+]([O-])c1C#N`, the MIC in experiment [1] was over 200 µg/mL; in experiment [2], 25 µg/mL (≈ 95 µM); in experiment [3], over 200 µg/mL; in experiment [4], 200 µg/mL (≈ 760 µM).
On to `CC(=O)c1c(C[S+](C)[O-])nc2ccccc2[n+]1[O-]` (configuration not stated), for which the MIC in experiment [1] stood at 25 µg/mL (≈ 94.6 µM); in experiment [2] it was 6.25 µg/mL (≈ 23.6 µM); in experiment [3] it was 25 µg/mL (≈ 94.6 µM); in experiment [4], 3.12 µg/mL (≈ 11.8 µM); in experiment [5], 6.25 µg/mL (≈ 23.6 µM).
Consider `CCS(=O)(=O)Cc1nc2ccccc2[n+]([O-])c1C(=O)NC`, for which the minimum inhibitory concentration (MIC) in experiment [1] was 25 µg/mL (≈ 80.8 µM); in experiment [2], 12.5 µg/mL (≈ 40.4 µM); in experiment [3], 12.5 µg/mL (≈ 40.4 µM); in experiment [4], 6.25 µg/mL (≈ 20.2 µM); in experiment [5] it was 6.25 µg/mL (≈ 20.2 µM).
In the case of `CS(=O)(=O)Cc1nc2ccccc2[n+]([O-])c1C(N)=O`, the MIC in experiment [1] is 3.12 µg/mL (≈ 11.1 µM); in experiment [2] it was 0.78 µg/mL (≈ 2.77 µM); in experiment [3], 1.56 µg/mL (≈ 5.55 µM); in experiment [4], 1.56 µg/mL (≈ 5.55 µM); in experiment [5], 6.25 µg/mL (≈ 22.2 µM).
For the molecule `COC(=O)c1c(CS(=O)(=O)CCO)nc2ccccc2[n+]1[O-]`, the MIC in experiment [1] was 25 µg/mL (≈ 76.6 µM); in experiment [2], 0.78 µg/mL (≈ 2.39 µM); in experiment [3] it was 6.25 µg/mL (≈ 19.2 µM); in experiment [4] it was 1.56 µg/mL (≈ 4.78 µM); in experiment [5], 1.56 µg/mL (≈ 4.78 µM).
For the molecule `CCS(=O)(=O)Cc1nc2ccccc2[n+]([O-])c1C(C)=O`, the MIC in experiment [1] worked out at 50 µg/mL (≈ 170 µM); in experiment [2] it was 1.56 µg/mL (≈ 5.3 µM); in experiment [3], 25 µg/mL (≈ 84.9 µM); in experiment [4] it was 6.25 µg/mL (≈ 21.2 µM); in experiment [5] it was 0.78 µg/mL (≈ 2.65 µM).
Taken in the same sequence, the figures for `COC(=O)N/N=C/c1c[n+]([O-])c2ccccc2[n+]1[O-]` [CARBADOX] were 0.19 µg/mL (≈ 0.725 µM), 0.19 µg/mL (≈ 0.725 µM), 0.39 µg/mL (≈ 1.49 µM), 0.78 µg/mL (≈ 2.97 µM) and 0.19 µg/mL (≈ 0.725 µM).
As for `CC(=O)c1c(C[S+]([O-])CCO)nc2ccccc2[n+]1[O-]` (configuration not stated), the MIC in experiment [1] is 6.25 µg/mL (≈ 21.2 µM); in experiment [2], 25 µg/mL (≈ 84.9 µM); in experiment [3], 25 µg/mL (≈ 84.9 µM); in experiment [4] it was 3.12 µg/mL (≈ 10.6 µM).
As to `CCCS(=O)(=O)Cc1nc2ccccc2[n+]([O-])c1C(C)=O`, the MIC in experiment [1] worked out at 200 µg/mL (≈ 649 µM); in experiment [2], 6.25 µg/mL (≈ 20.3 µM); in experiment [3], 100 µg/mL (≈ 324 µM); in experiment [4] it was 3.12 µg/mL (≈ 10.1 µM).

One may read the MIC as the smallest concentration in the dilution series that meets the test's criterion for growth inhibition. High values mean a less susceptible organism, low ones a more susceptible organism.
